Experimental data taken from patent US20240246920A1, “TRIAZOLE DERIVATIVES WITH ANTIFUNGAL ACTIVITY” (King's College London, priority 2020, published 2024).
≈ marks a conversion by molar mass, not a printed value. Read-outs that look alike come from different tables or passages of the source.

How the values were obtained:
[1] = tested on: C. parapsilosis NCPF3209; assay: microbe, parasite or virus in culture; type: cell-based, Candida parapsilosis; details: Lodderomyces parapsilosis
Protocol: (§1) The minimum inhibitory concentration of test compounds were determined in a panel of Candida species (see Table 4 below), using the a serial dilution method in 96-well plates using the following protocol.
(§2) Starter cultures of fungal strains to be tested were grown in 3 mL of RPMI 2% glucose media incubated at 37° C. with shaking at 200 rpm overnight. The culture media used was 900 mL H2O; 10.4 g RPMI 1640 (with L-glutamine and a pH indicator but without bicarbonate); 34.5 g MOPS and 18 g glucose. The pH of the media was adjusted to 7.0 with 1 M sodium hydroxide.
(§3) Solutions of the compound to be tested were prepared by dissolving the compound in DMSO and subsequently into media to the desired concentrations. […] The last two rows of each plate were control rows containing the culture media alone and the media plus fungi.
(§4) The fungi starter cultures were diluted 1:10 in water in cuvettes. This was then further diluted to an optical density (OD600) of 0.01 in media. 100 μL of the fungi was added to each well giving a starting concentration of fungus of 0.5-5×10^5/mL. One species of fungus was used on each plate. The plates were then held at 37° C. for 24 hours.
(§5) A plate reader was used to measure growth in each well at OD530 nm and the MIC was determined for each test compound. The MIC is defined as the lowest concentration giving rise to inhibition of ≥50% of that of the drug-free control well containing the fungus and media.

[2] = tested on: C. tropicalis NCPF8760; assay: Candida panel MIC, serial dilution in 96-well plates; type: cell-based
Protocol: as §1, §2
(§6) Solutions of the compound to be tested were prepared by dissolving the compound in DMSO and subsequently into media to the desired concentrations. 200 μL of compound solution was then added to the wells of the 96-well plate using a serial dilution method row-by row of the plate to give a compound concentration gradient across the plate of from 128 μg/mL to 0.25 μg/mL. The last two rows of each plate were control rows containing the culture media alone and the media plus fungi.
as §4, §5

[3] = tested on: C. auris TDG1912; assay: as above; type: cell-based; details: Candidozyma auris, TDG1912; Table 4; 24 hours, ≥50% inhibition; read-out: MIC C. auris TDG1912
Protocol: as §1, §2, §6, §4, §5

[4] = tested on: C. albicans NCPF3281; assay: as above; type: cell-based, Candida albicans; details: Candida albicans, NCPF3281; Table 4, common panel; 24 hours, ≥50% inhibition; read-out: MIC C. albicans NCPF3281
Protocol: as §1, §2, §6, §4, §5

[5] = tested on: C. krusei NCPF3876; assay: microbe, parasite or virus in culture; type: cell-based, Candida krusei; details: Pichia kudriavzevii
Protocol: as §1, §2, §3, §4, §5

[6] = tested on: C. glabrata NCPF8018; assay: Candida panel MIC, serial dilution in 96-well plates; type: cell-based, Candida glabrata; details: Nakaseomyces glabratus
Protocol: as §1, §2, §3, §4, §5

[7] = tested on: C. auris 8971; assay: as above; type: cell-based, Candida auris; details: Candidozyma auris, 8971; Table 4, extended panel; 24 hours, ≥50% inhibition; read-out: MIC C. auris 8971
Protocol: as §1, §2, §3, §4, §5
(§7) The Candida auris strains shown in Table 7 were either taken from the National Collection of Pathogenic Fungi (NCPF) or collected as part of ongoing surveillance studies. The strains were characterised as follows.

[8] = tested on: C. auris 8984; assay: as above; type: cell-based, Candida auris; details: Candidozyma auris, 8984; Table 4, extended panel; 24 hours, ≥50% inhibition; read-out: MIC C. auris 8984
Protocol: as §1, §2, §3, §4, §5, §7

[9] = tested on: C. auris 8977; assay: as above; type: cell-based, Candida auris; details: Candidozyma auris, 8977; Table 4, extended panel; 24 hours, ≥50% inhibition; read-out: MIC C. auris 8977
Protocol: as §1, §2, §3, §4, §5, §7

[10] = tested on: Candida auris TDG1102; assay: as above; type: cell-based; details: Candidozyma auris, TDG1102; Table 4, extended panel; 24 hours, ≥50% inhibition; read-out: MIC Candida auris TDG1102
Protocol: as §1, §2, §6, §4, §5

[11] = tested on: Candida auris TDG2512; assay: as above; type: cell-based; details: Candidozyma auris, TDG2512; Table 4, extended panel; 24 hours, ≥50% inhibition; read-out: MIC Candida auris TDG2512
Protocol: as §1, §2, §6, §4, §5

[12] = tested on: Candida auris TDG2506; assay: microbe, parasite or virus in culture; type: cell-based; details: Candidozyma auris, TDG2506; Table 4, extended panel; 24 hours, ≥50% inhibition; read-out: MIC Candida auris TDG2506
Protocol: as §1, §2, §3, §4, §5, §7

[13] = tested on: Candida auris TDG2211; assay: microbe, parasite or virus in culture; type: cell-based; details: Candidozyma auris, TDG2211; Table 4, extended panel; 24 hours, ≥50% inhibition; read-out: MIC Candida auris TDG2211
Protocol: as §1, §2, §3, §4, §5, §7

[14] = NCPF3209, Table 4, common panel, 24 hours, ≥50% inhibition, read-out: MIC C. parapsilosis NCPF3209
[15] = NCPF8760, Table 4, common panel, 24 hours, ≥50% inhibition, read-out: MIC C. tropicalis NCPF8760
[16] = NCPF3876, Table 4, common panel, 24 hours, ≥50% inhibition, read-out: MIC C. krusei NCPF3876
[17] = NCPF8018, Table 4, common panel, 24 hours, ≥50% inhibition, read-out: MIC C. glabrata NCPF8018
[18] = NCPF3209, read-out: MIC C. Parapsilosis NCPF3209
[19] = NCPF8760, read-out: MIC C. Tropicalis NCPF8760
[20] = NCPF3876, read-out: MIC C. Krusei NCPF3876
[21] = NCPF8018, read-out: MIC C. Glabrata NCPF8018

Row | SMILES | MIC [1, 14] | MIC [2, 15] | MIC [3] | MIC [4] | MIC [5, 16] | MIC [6, 17] | MIC [1, 18] | MIC [7] | MIC [8] | MIC [9] | MIC [2, 19] | MIC [10] | MIC [11] | MIC [12] | MIC [13] | MIC [5, 20] | MIC [6, 21]
1 | OC(CN1CCC2(CCN(Cc3ccccc3)CC2)CC1)(Cn1cncn1)c1ccc(F)cc1F (stereo not shown) [Example 1, 1-(9-Benzyl-3,9-diazaspiro[5.5]undecan-3-yl)-2-(2,4-difluorophenyl)-3-(1H-1,2,4-triazol-1-yl)propan-2-ol] | 4000 to 8000 ng/mL (≈ 8.31 to 16.6 µM) | 250 to 1000 ng/mL (≈ 0.519 to 2.08 µM) | ≤ 125 ng/mL | 500 to 1000 ng/mL (≈ 1.04 to 2.08 µM) | 1000 to 2000 ng/mL (≈ 2.08 to 4.15 µM) | ≤ 125 ng/mL |  |  |  |  |  |  |  |  |  |  | 
2 | OC(CN1CCC2(CCN(c3ncc(F)cn3)CC2)C1)(Cn1cncn1)c1ccc(F)cc1F (stereo not shown) [Example 7, 2-(2,4-Difluorophenyl)-1-(8-(5-fluoropyrimidin-2-yl)-2,8-diazaspiro[4.5]decan-2-yl)-3-(1H-1,2,4-triazol-1-yl)propan-2-ol] | 4 ng/mL (≈ 0.00845 µM) | 15 ng/mL (≈ 0.0317 µM) | 120 ng/mL (≈ 0.253 µM) | < 8 ng/mL | 60 ng/mL (≈ 0.127 µM) | 250 ng/mL (≈ 0.528 µM) | 4 ng/mL (≈ 0.00845 µM) | 30 ng/mL (≈ 0.0634 µM) | 120 ng/mL (≈ 0.253 µM) | 2 ng/mL (≈ 0.00422 µM) | 15 ng/mL (≈ 0.0317 µM) | 250 ng/mL (≈ 0.528 µM) | 30 ng/mL (≈ 0.0634 µM) | 500 ng/mL (≈ 1.06 µM) | 125 ng/mL (≈ 0.264 µM) | 60 ng/mL (≈ 0.127 µM) | 250 ng/mL (≈ 0.528 µM)
3 | OC(CN1CCCN(c2ncc(F)cn2)CC1)(Cn1cncn1)c1ccc(F)cc1F (stereo not shown) [Example 8, 2-(2,4-Difluorophenyl)-1-(4-(5-fluoropyrimidin-2-yl)-1,4-diazepan-1-yl)-3-(1H-1,2,4-triazol-1-yl)propan-2-ol] | 15 ng/mL (≈ 0.0346 µM) | 1000 ng/mL (≈ 2.31 µM) | 2000 ng/mL (≈ 4.61 µM) | < 15 ng/mL | 500 ng/mL (≈ 1.15 µM) | 250 ng/mL (≈ 0.577 µM) |  | 120 ng/mL (≈ 0.277 µM) | 120 ng/mL (≈ 0.277 µM) | 120 ng/mL (≈ 0.277 µM) |  | 1000 ng/mL (≈ 2.31 µM) | 2000 ng/mL (≈ 4.61 µM) | 8000 ng/mL (≈ 18.5 µM) | 1000 ng/mL (≈ 2.31 µM) |  | 
4 | OC(CN1CCCC(Nc2ccc(Cc3ccccc3)cc2)CC1)(Cn1cncn1)c1ccc(F)cc1F (stereo not shown) [Example 9, 1-(4-((4-Benzylphenyl)amino)azepan-1-yl)-2-(2,4-difluorophenyl)-3-(1H-1,2,4-triazol-1-yl)propan-2-ol] | ≤ 0.06 ng/mL | 125 ng/mL (≈ 0.241 µM) | 500 ng/mL (≈ 0.966 µM) | < 4 ng/mL | 8 ng/mL (≈ 0.0155 µM) | 125 ng/mL (≈ 0.241 µM) | ≤ 0.06 ng/mL | 120 ng/mL (≈ 0.232 µM) | 120 ng/mL (≈ 0.232 µM) | 0.1 ng/mL (≈ 0.000193 µM) | 500 ng/mL (≈ 0.966 µM) | 1000 ng/mL (≈ 1.93 µM) | 125 ng/mL (≈ 0.241 µM) | 500 ng/mL (≈ 0.966 µM) | 250 ng/mL (≈ 0.483 µM) | 8 ng/mL (≈ 0.0155 µM) | 125 ng/mL (≈ 0.241 µM)
5 | OC(CN1CCCCN(c2cnccn2)CC1)(Cn1cncn1)c1ccc(F)cc1F (stereo not shown) [Example 17, 2-(2,4-Difluorophenyl)-1-(4-(pyrazin-2-yl)-1,4-diazocan-1-yl)-3-(1H-1,2,4-triazol-1-yl)propan-2-ol] | ≤ 125 ng/mL | 4000 to 8000 ng/mL (≈ 9.31 to 18.6 µM) | 4000 to 16000 ng/mL (≈ 9.31 to 37.3 µM) | ≤ 125 ng/mL | 4000 ng/mL (≈ 9.31 µM) | 120 ng/mL (≈ 0.279 µM) |  |  |  |  |  |  |  |  |  |  | 
6 | CC(C)COc1ccc(NC2CCN(CC(O)(Cn3cncn3)c3ccc(F)cc3F)CC2)cc1 (stereo not shown) [Example 84] | 0.98 to 1.95 ng/mL (≈ 0.00202 to 0.00402 µM) | 125 ng/mL (≈ 0.257 µM) |  | 1.95 ng/mL (≈ 0.00402 µM) | 30 ng/mL (≈ 0.0618 µM) | 60 ng/mL (≈ 0.124 µM) | 0.98 to 1.95 ng/mL (≈ 0.00202 to 0.00402 µM) | 1.95 to 3.91 ng/mL (≈ 0.00402 to 0.00805 µM) | 30 ng/mL (≈ 0.0618 µM) | 3.91 ng/mL (≈ 0.00805 µM) | 125 ng/mL (≈ 0.257 µM) | 15.6 ng/mL (≈ 0.0321 µM) | 1.95 to 3.91 ng/mL (≈ 0.00402 to 0.00805 µM) | 30 ng/mL (≈ 0.0618 µM) | 0.98 to 1.95 ng/mL (≈ 0.00202 to 0.00402 µM) | 30 ng/mL (≈ 0.0618 µM) | 60 ng/mL (≈ 0.124 µM)
7 | COc1ccc(Oc2ccc(NC3CCN(CC(O)(Cn4cncn4)c4ccc(F)cc4F)CC3)cc2)cc1 (stereo not shown) [Example 86] | 0.98 to 7.8 ng/mL (≈ 0.00183 to 0.0146 µM) | 125 ng/mL (≈ 0.233 µM) |  | 7.8 to 15.6 ng/mL (≈ 0.0146 to 0.0291 µM) | 15 to 125 ng/mL (≈ 0.028 to 0.233 µM) | 500 ng/mL (≈ 0.934 µM) | 0.98 to 7.8 ng/mL (≈ 0.00183 to 0.0146 µM) | 0.98 to 30 ng/mL (≈ 0.00183 to 0.056 µM) | 7.8 to 125 ng/mL (≈ 0.0146 to 0.233 µM) | 0.98 to 3.9 ng/mL (≈ 0.00183 to 0.00728 µM) | 125 ng/mL (≈ 0.233 µM) | 15 to 62.5 ng/mL (≈ 0.028 to 0.117 µM) | 7.8 ng/mL (≈ 0.0146 µM) | 62.5 ng/mL (≈ 0.117 µM) | 7.8 ng/mL (≈ 0.0146 µM) | 15 to 125 ng/mL (≈ 0.028 to 0.233 µM) | 500 ng/mL (≈ 0.934 µM)
